Like-named read-outs stand apart in the source and are kept apart here.
Tests used:
rabbit TIM = molecular target: T1, rabbit TIM (Oryctolagus cuniculus, UniProt P00939); test: Selectivity assay, inhibition of rabbit TIM; type: biochemical; settings: read-out: inhibition against rabbit TIM
T1 construct: made in house; host or cells: Escherichia coli
Protocol: (§1) Expression and purification of proteins: FhTIM, RabbitTIM and HsTIM were expressed in Escherichia coli and purified as described in the literature[31],[37]. After purification, the enzyme, dissolved in 100 mM triethanolamine, 10 mM EDTA and 1 mM dithiothreitol (pH 8), was precipitated with ammonium sulfate (75% saturation) and stored at 4 °C. Before use, extensive dialysis against 100 mM triethanolamine/10 mM EDTA (pH 7.4) was performed. Protein concentration was determined by absorbance at 280 nm for FhTIM (ε = 33,460 M^−1cm^−1) and for RabbitTIM and HsTIM (ε = 33,460 M^−1cm^−1). Enzymatic activity was determined following the conversion of glyceraldehydes-3-phosphate into dihydroxyacetone phosphate in a coupled enzyme assay. The decrease in absorbance at 340 nm was followed in a multiplate reader VarioskanTM Flash Multimode Reader (Thermo ScientificTM, Waltham, MA, USA) at 38 °C. The reaction mixture (1 mL, pH 7.4) contained 100 mM triethanolamine, 10 mM EDTA, 0.2 mM NADH, 1 mM glyceraldehydes-3-phosphate and 0.9 units of α-glycerol phosphate dehydrogenase. The reaction was initiated by the addition of 5 ng/mL of the TIM of interest. For the inhibition studies, TIM was incubated at a concentration of 5 mg/mL in a buffer containing 100 mM triethanolamine, 10 mM EDTA, pH 7.4 and 10% of DMSO at 37 °C for 1 h. The mixture also contained the compounds, dissolved in DMSO, at the indicated concentrations. After 1 h, 10 µL were withdrawn and added to a final volume of 100 µL of the reaction mixture for the activity assay. The inhibition assay was performed in a 96-well microplate. None of the molecules tested here affected the activity of α-glycerol phosphate dehydrogenase, the enzyme used in the coupled assay. The IC50 value was taken as the concentration of drug needed to reduce the enzymatic activity to 50% by analysis using OriginLab8.5® sigmoidal regression (% of enzymatic activity vs. the logarithm of the compound concentration). The experiments were performed in triplicate in two independent experiments.

S. mansoni somules = S. mansoni somules phenotypic screen in vitro; type: cell-based, Schistosoma mansoni; settings: for S. mansoni somules severity score: score 0 to maximum 4; for SOMULES SEVERITY SCORE: Table 2S, 10 uM
Source text: (§2) The NMRI isolate of S. mansoni was maintained by passage through Biomphalaria glabrata snails and 3–5 week-old, female Golden Syrian hamsters (Charles River, San Diego, CA) as intermediate and definite hosts, respectively. A dose of 600 infective larvae (cercariae) was used to infect hamsters. The acquisition, preparation and in vitro maintenance of S. mansoni post-infective larvae (schistosomula or somules) and adults have been already described[5],[50],[51]. Vertebrate animal maintenance and handling at the University of California San Diego Animal Care Facility were in accordance with protocols approved by the university’s Institutional Animal Care and Use Committee (IACUC).
Phenotypic screens with somules were performed as described[5],[50],[51]. Initially, 100 μL Basch medium, 100 U/ml penicillin, […] streptomycin, 4% heat-inactivated FBS (Corning Mediatech) and 1 μl compound in DMSO were added to clear, 96-well round-bottomed plates (Costar cat.# 3367). Then, 100 μL of the same medium containing 40–50 somules was added to mix the compound with somules (final concentration of DMSO was 0.5%). Assay plates were placed into plastic boxes humidified with wet tissue and then incubated at 37 °C in a 5% CO2 environment. Somules phenotypes were recorded every 24 h up to 72 h using an inverted microscope (Zeiss Axiovert 40 C).
(§3) Schistosome phenotypic responses were recorded employing a series of ‘descriptors,’ such as rounding, degeneration, overactivity, loss of translucency and changes in motility, as described previously[5],[50],[51],[53]. To allow for comparisons of compound activity, each descriptor was awarded a value of 1 and these were added up to a maximum ‘severity score’ of 4. Evidence of degeneracy or death was awarded the maximum score of 4. Scores were averaged across duplicate wells for each compound (see details in the supporting information).

FhTIM = FhTIM (Fasciola hepatica, UniProt S4UI50); test: Microscale thermophoresis (MST) binding to FhTIM; settings: 24 °C
FhTIM, sequence (S4UI50 entry or part of it): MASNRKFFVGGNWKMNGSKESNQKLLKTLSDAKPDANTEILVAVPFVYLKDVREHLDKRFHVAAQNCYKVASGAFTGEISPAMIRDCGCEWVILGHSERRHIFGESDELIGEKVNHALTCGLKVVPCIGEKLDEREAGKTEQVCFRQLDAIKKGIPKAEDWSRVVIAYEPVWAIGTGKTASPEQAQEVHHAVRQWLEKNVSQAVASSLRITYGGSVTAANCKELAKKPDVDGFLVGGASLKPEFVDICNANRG
Protocol: MST experiments were performed according to the NanoTemper technologies protocol in a Monolith NT.115 (red/blue) instrument (NanoTemper Technologies, München, Germany[36]). With this technique, the diffusion behavior of a labeled protein is measured when an infrared light excites the movement of the protein in capillaries. This behavior is the combination of two effects: the fast, local environment-dependent responses of the fluorophore to the temperature jump and the slower diffusive thermophoresis fluorescence changes. It will be modified when the protein is complexed with increasing amounts of unlabeled partners, leading to titration curves that can be fit for Kd estimation. In practice, FhTIM was labeled with the Monolith His-Tag Labeling Kit RED-tris-NTA (NanoTemper Technologies, München, Germany), as described by the manufacturer. The experiments were performed using 20% and 40% MST power and between 20–80% LED power at 24 °C. The MST traces were recorded using the standard parameters: 5 s MST power off, 30 s MST power on, and 5 s MST power off. The compounds were used at high concentrations (around 5 mM) in the bindings check assay with DMSO at 5% v/v. If the binding check was positive, then the affinity determination was performed with the same experimental settings, with serial 2x dilutions of the compound of interest.

[1] = system: newly excysted juvenile (NEJ) F. hepatica; test: In vitro NEJ treatment; type: cell-based, Fasciola hepatica; settings: NEJ
Protocol: F. hepatica metacercariae were acquired from DILAVE, MGAP, Uruguay. NEJ were obtained by in vitro excystement as previously described with minor modifications. Briefly, metacercariae were incubated with 1% sodium hypochlorite for 5 min at room temperature to remove the outer cyst wall and then washed exhaustively with PBS 200 U/mL Penicillin G sulfate, […] streptomycin sulfate, 500 ng/mL amphotericin B, 10 mM HEPES, counted and divided into groups of around 20 parasites that were transferred to 12 wells tissue culture plates. Parasites were maintained at 37 °C, 5% CO2 in modified Basch’s medium. At day 1, compounds were added at the indicated concentrations and 0.5% DMSO was added to control groups; each condition was tested in duplicate. NEJ behavior was monitored under a light microscope (Olympus BX41), every day each well was recorded for a minute in order to assess parasite motility and registered using the following score: 3- normally active; 2- reduced activity (sporadic movement); 1- immotile (dead)[48].

[2] = molecular target: Fasciola hepatica TIM (FhTIM) (Fasciola hepatica, UniProt S4UI50); test: Inhibition of recombinant FhTIM, coupled enzyme assay; type: biochemical
Fasciola hepatica TIM (FhTIM), sequence (S4UI50 entry or part of it): as above
Outline: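 E. coli-expressed FhTIM preincubated with compound 1 h at 37 °C in 100 mM triethanolamine, 10 mM EDTA, pH 7.4, 10% DMSO. Aliquot diluted into coupled assay (1 mM glyceraldehyde-3-phosphate, 0.2 mM NADH, α-glycerol phosphate dehydrogenase, pH 7.4) with NADH decrease at 340 nm, 38 °C. Triplicate, two independent experiments.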

human (HsTIM) = molecular target: T2, human (HsTIM) (Homo sapiens, UniProt P60174); test: Selectivity assay, inhibition of HsTIM; type: biochemical; settings: read-out: inhibition against HsTIM
T2 construct: made in house; host or cells: Escherichia coli
T2 sequence (P60174 whole entry): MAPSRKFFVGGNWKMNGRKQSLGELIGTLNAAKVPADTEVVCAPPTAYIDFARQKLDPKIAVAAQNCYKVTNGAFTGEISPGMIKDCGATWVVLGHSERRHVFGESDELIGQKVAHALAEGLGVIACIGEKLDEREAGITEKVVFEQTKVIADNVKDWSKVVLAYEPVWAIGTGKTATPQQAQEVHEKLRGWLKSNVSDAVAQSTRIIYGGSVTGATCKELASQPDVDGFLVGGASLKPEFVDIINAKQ
Protocol: as §1

S. mansoni adults = S. mansoni adults phenotypic screen ex vivo; type: cell-based, Schistosoma mansoni; settings: Table 2S, 5 uM
Source text: as §2
Phenotypic screens with 42-day-old, adult parasites were performed in 24-well plates (Costar cat.# 3526) containing the above medium and approximately five adult males and two females per well. Compound was added in a volume of up to 1 μL DMSO at a concentration of 5 µM (0.05% DMSO final). Assay plates were incubated at 37 °C in a 5% CO2 environment. Parasite phenotypes were recorded at 4, 8 and 24 h using a Zeiss Axiovert 40 C.
as §3

[3] = system: murine macrophages and human peripheral blood mononuclear cells; design: method as in PMID 22536349; settings: at 100 µM; cited from earlier work
[4] = system: murine macrophages and bovine sperm; test: Non-specific toxicity against mammalian cells; type: cell-based; settings: for toxicity to mammalian cells in words: herein; for Toxicity mammalian cells: selectivity index parasite vs. mammalian cells, fixed doses 25 and 100 µM
Protocol: As a proof of concept, we tested the best FhTIM inactivators against F. hepatica and S. mansoni parasites. Also, we use compound 191 as a non-inhibitor which has a closely related structure to that of compound 187. Some compounds were able to kill 100% of the newly excysted juvenile (NEJ) F. hepatica within 4 to 48 h (Table 2 and Fig. 2). […] In parallel, these compounds were assayed to characterize their non-specific toxicity against murine macrophages and bovine sperm. Both models are recommended by FDA as an in vitro prediction of toxicology.
J774.1 murine macrophage cells (ATCC, USA) were grown in DMEM culture milieu containing 4 mM glutamine and supplemented with 10% FCS[20]. The cells were seeded in a 96-well plate (5×10^4 cells in 200 µL culture medium) and incubated at 37 °C in a 5% CO2 atmosphere for 48 h, to allow cell adhesion prior to drug testing. Afterward, cells were exposed for 48 h to the compounds (25–400 µM) or the vehicle for control (0.4% DMSO), and additional controls (cells in medium) were used in each test. Cell viability was then assessed by measuring the mitochondria-dependent reduction of MTT (3-(4,5-dimethylthiazol-2-yl)-2,5-diphenyltetrazolium bromide) to formazan. For this purpose, MTT in sterile PBS (0.2% glucose), pH 7.4, was added to the macrophages to achieve a final concentration of 0.1 mg/mL, and the cells were incubated at 37 °C for 3 h. After removing the medium, formazan crystals were dissolved in 180 µL of DMSO and 20 µL of MTT buffer (0.1 M glycine, 0.1 M NaCl, 0.5 mM EDTA, pH 10.5), and the absorbance at 560 nm was measured. The IC50 was defined as the drug concentration at which 50% of the cells were viable, relative to the control (no drug added), and was determined by analysis using OriginLab8.5® sigmoidal regression (% of viable cells vs. the logarithm of the compound concentration). Tests were performed in triplicate.
Semen samples were obtained from a healthy fertile Hereford bull and kept frozen in 0.5 mL straws (extended in Andromed, Minitube, Germany[47]) under liquid nitrogen until use. The semen used belonged to a single freezing batch that was obtained during a regular collection schedule with an artificial vagina. Samples from three straws were thawed and a sperm pool was prepared in PBS at a concentration of 40 million spermatozoa per mL, then 50 μL of this sperm suspension was carefully mixed with 50 μL of compounds diluted to 100, 50, 25, 12.5 and 6.25 μM or with 1% DMSO in control experiments. Each condition was assayed by duplicate in 96-well plates and controls were assayed by triplicate. Plates were incubated at 37 °C for 1 h with moderate shaking. The motility analysis was carried out using a CASA (Computer Assisted Semen Analyzer) system Androvision (Minitube, Tiefenbach, Germany) with an Olympus BX 41 microscope (Olympus, Japan) equipped with a warm-stage at 37 °C. Each sample (10 μL) was placed onto a Makler Counting Chamber (depth 10 μm, Sefi-Medical Instruments, Israel) and the following parameters were evaluated: percentage of total motile spermatozoa (motility >5 μm/s) and velocity curved line (VCL, >24 μm/s). At least 400 spermatozoa were analyzed from each sample from at least four microscope fields.

[5] = Figure 1, ranges of inhibitory activity, read-out: IC50 range
[6] = recombinant FhTIM, 1 h incubation with compound at 37 °C, read-out: IC50
[7] = Table 1S, screening of 340 compounds in FhTIM, table head prints no unit, µM per b8/b9, read-out: IC50

T1 sequence (P00939 whole entry): as the sequence (P60174 whole entry) above, with Q20K, S21N, G27T, A119S counted along it

Row | Compound | inhibition at 100 µM (rabbit TIM) [%] | Kd (FhTIM) [µM] | IC50 [2, 5] [µM] | IC50 [2, 6] [µM] | inhibition at 100 µM (human (HsTIM)) [%] | IC50 ([1]; incubation time 72 h) [µM] | IC50 [2, 7] [µM] | S. mansoni somules severity score (S. mansoni somules; Table 2, 72 h) | SOMULES SEVERITY SCORE (S. mansoni somules; 24 h) | SOMULES SEVERITY SCORE (S. mansoni somules; 48 h) | SOMULES SEVERITY SCORE (S. mansoni somules; 3d) | toxicity in words [3] | toxicity to mammalian cells in words [4] | Toxicity mammalian cells [4] | other results
1 | C=CCn1c(-c2ccc(Cl)cc2)csc1=NN=CC=Cc1ccc([N+](=O)[O-])s1 [Compound 144] |  |  |  | 60 ± 2 |  | 25 ± 5 |  | 4 (72 h) | 1 | 2 | 4 | non-toxic | non-toxic | NT (when the IC50 vs. the parasite was at least 10 times less than the IC50 vs. the mammalian cells, we considered these compounds as non-toxic (NT)) | ADULTS SEVERITY SCORE (S. mansoni adults; 4 h): 0; ADULTS SEVERITY SCORE (S. mansoni adults; 8 h): 0; ADULTS SEVERITY SCORE (S. mansoni adults; 24 h): 0
2 | C=CCn1c(-c2ccc(Cl)cc2)csc1=NN=CC=Cc1cccs1 [Compound 1134] |  |  |  | 45 ± 4 |  | 50 ± 6 | 50 to 100 |  |  |  |  | non-toxic | non-toxic | NT (when the IC50 vs. the parasite was at least 10 times less than the IC50 vs. the mammalian cells, we considered these compounds as non-toxic (NT)) | 

Stronger by IC50 [2, 6], values ahead:

Row | inhibition at 100 µM (rabbit TIM) [%] | Kd (FhTIM) [µM] | IC50 [2, 5] [µM] | IC50 [2, 6] [µM] | inhibition at 100 µM (human (HsTIM)) [%] | IC50 ([1]; incubation time 72 h) [µM] | IC50 [2, 7] [µM] | Compound | S. mansoni somules severity score (S. mansoni somules; Table 2, 72 h) | SOMULES SEVERITY SCORE (S. mansoni somules; 24 h) | SOMULES SEVERITY SCORE (S. mansoni somules; 48 h) | SOMULES SEVERITY SCORE (S. mansoni somules; 3d) | toxicity in words [3] | toxicity to mammalian cells in words [4] | Toxicity mammalian cells [4] | other results
3 | < 20 | 120 ± 12 | < 50 | 8 ± 2 | < 20 |  |  | O=C1C(=Cc2ccc([N+](=O)[O-])s2)C(=O)N(CCc2ccccc2)S(=O)(=O)N1CCc1ccccc1 [Compound 115] | 4 (72 h) | 2 | 3 | 4 |  |  |  | IC50 ([1]; Fasciola hepatica, incubation time 72 h): 7 ± 2 µM
4 | < 20 |  | < 50 | 7 ± 1 | < 20 |  |  | O=C1C(=Cc2ccc([N+](=O)[O-])cc2)C(=O)N(CCc2ccccc2)S(=O)(=O)N1CCc1ccccc1 [Compound 110] |  | 0 | 0 | 0 |  |  |  | S. mansoni somules severity score (S. mansoni somules; Table 2, time not given): 0; IC50 ([1]; Fasciola hepatica, incubation time 30 h): 5 ± 2 µM
5 | < 20 | 120 ± 10 | < 50 | 5 ± 1 | < 20 |  | < 25 | CCCCCCN1C(=O)C(=Cc2ccc([N+](=O)[O-])cc2)C(=O)N(CCCCCC)S1(=O)=O [Compound 128] |  |  |  |  |  |  |  | IC50 ([1]; Fasciola hepatica, incubation time 12 h): 10 ± 1 µM

Source: publication PMC7018972, “Novel and selective inactivators of Triosephosphate isomerase with anti-trematode activity” (Scientific Reports, 2020)
